Measured values taken from patent US20210330659A1, “USE OF NICOTINAMIDE COMPOSITION IN PREPARATION OF DRUG FOR TREATING HAND-FOOT SKIN REACTION INDUCED BY SORAFENIB” (ZHEJIANG UNIVERSITY, priority 2018, published 2021).

Columns and labels:
[1] = tested on: keratin 1, keratin 10 and Loricrin in HaCaT cells; test: mRNA levels of keratinization indicators in HaCaT cells given HUVEC conditioned medium; assay type: cell-based
Method: (§1) HUVEC cells were administrated with 15 μM sorafenib. After that, the cells and the culture medium were separately collected, and the culture medium is concentrated. […] HUVEC culture medium treated with sorafenib, as a conditioned medium, was applied to HaCaT cells, and the expression of SIRT1 in the cells was detected. […] After HUVEC cells with HB-EGF knocked out were constructed, the culture medium obtained after administrated with sorafenib was administrated to the HaCaT cells, and mRNA levels of the keratinization progress indicators, i.e., keratin 1, keratin 10 and Loricrin, were detected. […] The HUVEC culture medium added with sorafenib, as the conditioned medium, was applied to the HaCaT cells in which SIRT1 was knocked out, and the mRNA levels of the three keratins were detected.
In an in vitro cell experimental model, HUVEC cells were administered with 15 μM sorafenib alone, and 15 μM sorafenib together with 10 μM nicotinamide, respectively. After 24 hours, the culture medium was collected as a conditioned medium for HaCaT cells, and the HaCaT cells were collected 24 hours later for the detection of mRNA levels of three keratins.

[2] = tested on: SIRT1 in HaCaT cells; test: SIRT1 expression in HaCaT cells given sorafenib-treated HUVEC conditioned medium; assay type: cell-based; conditions: HaCaT cells given sorafenib-treated HUVEC culture medium as conditioned medium, FIG. 1B
Method: as §1

[3] = patients treated with sorafenib; cited from earlier work
[4] = tested on: HB-EGF protein in HUVEC cells; test: Western blot of pro-HB-EGF in cell lysate and s-HB-EGF in culture medium of sorafenib-treated HUVEC cells; assay type: cell-based; conditions: 15 μM sorafenib, FIG. 1A
Method: as §1

Structure (SMILES): NC(=O)c1cccnc1 [nicotinamide, 3-pyridinecarboxamide]
- mRNA levels of the three keratins (keratin 1, keratin 10, Loricrin) ([1]; HUVEC treated 24 h with 10 μM nicotinamide plus 15 μM sorafenib, medium applied to HaCaT for 24 h, compared with sorafenib alone, FIG. 2): significantly down-regulated

Structure (SMILES): CNC(=O)c1cc(Oc2ccc(NC(=O)Nc3ccc(Cl)c(C(F)(F)F)c3)cc2)ccn1 [sorafenib]
- expression of SIRT1 in HaCaT cells [2]: up-regulated
- prevalence of hand-foot skin reaction (HFSR) [3]: up to 60%
- mRNA levels of keratin 1, keratin 10 and Loricrin ([1]; HaCaT cells given medium of sorafenib-treated HUVEC cells with HB-EGF knocked out, FIG. 1C): down-regulated
- mRNA levels of keratin 1, keratin 10 and Loricrin ([1]; SIRT1-knocked-out HaCaT cells given sorafenib-treated HUVEC conditioned medium, FIG. 1D): also down-regulated
- expression level of the HB-EGF protein in the cells (pro-HB-EGF, cell lysate) ([4]; HUVEC cells): down-regulated
- expression of HB-EGF protein in the culture medium (s-HB-EGF) ([4]; HUVEC culture medium, concentrated): increased
